Substitutions are numbered along the chain they refer to.
Experiments:
LonP1 F547A = target: T1, LonP1 F547A (Homo sapiens, UniProt P36776, F547A); assay: Endpoint ATPase assay, LonP1 F547A; assay type: biochemical
T1 construct: hexa-histidine (N); made in house; host or cells: Rosetta 2 E. coli
T1 sequence (P36776 68-959 F547A): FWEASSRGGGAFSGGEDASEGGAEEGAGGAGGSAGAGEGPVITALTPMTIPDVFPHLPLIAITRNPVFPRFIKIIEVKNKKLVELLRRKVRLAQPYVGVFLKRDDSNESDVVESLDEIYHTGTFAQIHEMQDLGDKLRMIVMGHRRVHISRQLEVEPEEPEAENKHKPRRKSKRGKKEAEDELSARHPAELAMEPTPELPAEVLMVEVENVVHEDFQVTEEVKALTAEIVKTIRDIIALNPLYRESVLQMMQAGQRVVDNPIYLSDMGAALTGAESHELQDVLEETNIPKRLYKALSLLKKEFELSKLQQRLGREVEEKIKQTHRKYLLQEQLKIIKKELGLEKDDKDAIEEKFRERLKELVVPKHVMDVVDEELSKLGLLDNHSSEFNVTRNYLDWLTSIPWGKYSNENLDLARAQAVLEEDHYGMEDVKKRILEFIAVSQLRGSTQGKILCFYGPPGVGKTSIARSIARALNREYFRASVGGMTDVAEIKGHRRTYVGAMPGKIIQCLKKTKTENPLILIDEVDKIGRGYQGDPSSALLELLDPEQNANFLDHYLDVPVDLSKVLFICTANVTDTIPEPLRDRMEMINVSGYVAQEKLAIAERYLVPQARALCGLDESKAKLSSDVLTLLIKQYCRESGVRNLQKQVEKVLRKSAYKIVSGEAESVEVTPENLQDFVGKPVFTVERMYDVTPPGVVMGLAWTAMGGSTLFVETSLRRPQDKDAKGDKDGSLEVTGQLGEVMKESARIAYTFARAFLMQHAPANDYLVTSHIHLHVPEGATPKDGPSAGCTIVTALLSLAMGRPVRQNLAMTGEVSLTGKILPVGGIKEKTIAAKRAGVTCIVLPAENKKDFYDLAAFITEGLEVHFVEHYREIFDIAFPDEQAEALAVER
Protocol: (§1) Human mitochondrial LonP1 and mutants lacking the predicted mitochondrial targeting sequence were fused to an N-terminal hexa-histidine affinity tag, expressed in Rosetta 2 E. Coli, and purified using a nickel agarose column as previously described ([72]) and protein concentration and buffer exchange carried out using Amicon Ultra centrifugal filtration. LonP1 mutant constructs were obtained from the PCR-based QuikChange Site-Directed Mutagenesis Kit.
(§2) ADP-Glo (Promega) assays were performed according to the manufacturer's protocols. Purified wild-type or mutant LonP1 (400 nM monomer), the 26S proteasome (3 nM), or no enzyme controls were preincubated in 96-well plates (60 min, 25 °C) with ten different concentrations of CDDO and its derivatives, TP-82, enoxolone (5 μM) or DMSO vehicle control in buffer (40 mM Tris-HCl (pH 7.5), 20 mM MgCl2, 0.1 mg/ml BSA and 5% DMSO). The 26S and 20S proteasome were also assayed at 0, 0.75, 1.5, 3, 6, and 12 nM in the absence of CDDO derivatives. […] Assay reagents were used to quench further ATPase activity and generate luminescence signals proportional to the concentration of ADP formed. Background (no enzyme control) luminescence values were subtracted, and resultant values were reported as a percentage of the no drug control (100%). […]

LonP1 F547A/C637V = target: T2, LonP1 F547A/C637V (Homo sapiens, UniProt P36776, C637V/F547A); assay: Endpoint ATPase assay, LonP1 F547A/C637V; assay type: biochemical
T2 construct: hexa-histidine (N); made in house; host or cells: Rosetta 2 E. coli
T2 sequence (P36776 68-959 F547A/C637V): T1 sequence (P36776 68-959 F547A) with C570V
Protocol: as §1, §2

[1] = end-point ATPase assay, read-out: CDDO IC50

Fold increase in inhibition compared with WT (LonP1 F547A): 2.4
IC50 (LonP1 F547A; [1]): 5.9 ± 0.6 µM
Fold increase in inhibition compared with WT (LonP1 F547A/C637V): 7.4
IC50 (LonP1 F547A/C637V; [1]): 1.9 ± 0.3 µM
Structure (SMILES): CC1(C)CC[C@]2(C(=O)O)CC[C@]3(C)[C@H](C(=O)C=C4[C@@]5(C)C=C(C#N)C(=O)C(C)(C)[C@@H]5CC[C@]43C)[C@@H]2C1 [CDDO, 2-cyano-3,12-dioxooleana-1,9(11)-dien-28-oic acid]

Reference: PMC8921294, “Inhibition of mitochondrial LonP1 protease by allosteric blockade of ATP binding and hydrolysis via CDDO and its derivatives” (The Journal of Biological Chemistry, 2022)
